US8945595B2, “Insect repellent and attractants” (The Regents of the University of California, priority 2009, dated 2015)

Assays:
[1] = test system: Or83b2 mutant flies; test: T-maze choice assay, avoidance behavior to CO2, Or83b2 mutant flies; type: in vivo, Drosophila; details: odourant with CO2
Procedure: (a) A t-maze is used to show preference to a test odor or to a solvent. Flies are starved 24 hrs prior to assay. All assays performed for 1-min in the dark. A negative preference index indicates avoidance. (a) Flies in a T-maze were offered a choice between a 15 ml tube infused with 0.1ml of CO2 prior to start of assay, and another that was infused with air. (b) wildtype and Or83b−/− flies were presented with CO2, a mixture of CO2 and 2,3-butanedione (d4on), or d4on alone. (c) Flies were exposed to 10 ul d4on 10^−2 for 1 min, allowed to recover for 2 min in clean air and then assayed for avoidance to CO2. A control exposure to 1 min of 2-methylphenol (2 mpol) at 10^−2 and then a recovery period of 2 min is also assayed for avoidance behavior to CO2. (d) Flies are exposed to d4on for 1 min, allowed to recover for 2 min, and then assayed for behavior to ethyl acetate (2AC). Behavior to 2AC without pre-exposure is also measured. […]
T-maze behavioral testing using Drosophila stress odour, CO2, and mixtures were using techniques known in the art, with some modifications. […] The avoidance response was calculated as a Preference Index (PI)=(number of flies in test arm−number of flies in control arm)/(total number of flies in assay). […] The avoidance response was calculated as a Preference Index (PI)=(number of flies in test arm−number of flies in control arm)/(total number of flies in assay). […]

[2] = test system: CO2 sensitive A neuron of peg sensillum; test: activation of CO2 sensitive neuron with a volatile odorant; type: cell-based, Culex quinquefasciatus; details: indicated concentrations
Procedure: (§1) FIG. 2 depicts electrophysiology measurements of the peg sensillum on the mosquito maxillary palp. The palp, indicated in brown in the schematic of the mosquito head, has several peg sensilla. Each peg sensilla (grey club-like structure in the center) contains three olfactory neurons A, B and C as indicated, of which the ‘A’ neuron gives a robust and specific increase in frequency of action potentials in response to a stimulus of CO2. Extracellular single-unit recordings are performed by inserting a glass microelectrode into the peg sensilla, and puffing an odor such as CO2 towards the mosquito maxillary palps. The signal is amplified to obtain the trace of action potentials.
(§2) (a) Action potential traces from the peg sensillum of the maxillary palp show spike amplitudes from three neurons, where the spikes with the largest amplitude belongs to the CO2 sensitive A neuron. (b) 1 sec of the indicated dilution 2,3-butanedione is puffed to Aedes aegypti. (c) 1 sec of indicated odor is puffed to Anopheles gambiae. (d) butanone and (e) 2,3-butanedione are given to Culex quinquefasciatus at the indicated concentrations. PO=paraffin oil. n=5. Baseline activity subtracted. Error bars indicate SEM.

[3] = test system: CO2 sensitive A neuron of peg sensillum; test: as above; type: cell-based, Aedes aegypti; details: 1 sec puff, indicated dilution
Procedure: as §1, §2

[4] = test system: CO2-sensitive ab1C neurons; test: single-sensillum electrophysiology, baseline (spontaneous) activity of ab1C neurons; type: cell-based, Drosophila
Procedure: A number of individual odourants were tested for their ability to inhibit the baseline activity of the neuron using single-sensillum electrophysiology. […] Extracellular single-unit recordings were performed. Odourant stimuli were delivered via Pasteur pipette odour cartridges (see, FIG. 16). Chemicals were of the highest purity available, typically>99% (Sigma-Aldrich). All odourants were diluted in paraffin oil. A controlled volume of air 5 ml/sec was puffed through the odour cartridge containing vapours, and was delivered into a constant humidified airstream of 10 ml/sec that was passed over the fly antenna. […] CO2 stimulus was pulsed through a separate delivery system that delivered controlled pulses (variable 2.5 ml/sec-6.5 ml/sec) into the same humidified airstream, from either a 1%, 5% or 100% tank of CO2 (Airgas). […] Unless mentioned, responses were quantified by subtraction of spontaneous activity from activity during the stimulus. […] Both these compounds are present at electrophysiologically relevant concentrations in Drosophila food sources: 1-hexanol has been detected in various types of fruit including mango, melon, strawberry, passion fruit, muskmelon and banana; 2,3-butanedione is a natural by-product of fermentation by yeast and is thus also present in beer.

Row | Structure (SMILES) | avoidance behavior to CO2 (Preference Index) [1] | activation of CO2 sensitive neuron [2] | activation of CO2 sensitive neuron [3] | inhibition of spontaneous activity of ab1C neurons [4]
1 | CC(=O)C(C)=O [2,3-butanedione] | significantly reduced | activation | activation | strongly inhibit
2 | CCCCCCO [1-hexanol] | significantly reduced |  |  | strongly inhibit
